Measured values reported in patent US10131675B2 (Genentech, Inc., priority 2015, dated 2018).

The compounds below were run against DLK (Homo sapiens (Human), UniProt Q12852) (assay: DLK TR-FRET Inhibition Assay). Conditions: N-terminally GST-tagged DLK (catalytic domain amino acid 1-520), MKK4 K131M substrate, 30 μM ATP; read-out: DLK HTRF Ki.
Assay type: biochemical
Description: DLK kinase reactions (20 μL) containing 5 nM N-terminally GST-tagged DLK (catalytic domain amino acid 1-520) (Carna Bioscience), 40 nM N-terminally HIS tagged MKK4 K131M substrate, and 30 μM ATP in kinase reaction buffer (50 mM HEPES, pH 7.5, 0.01% Triton X-100, 0.01% Bovine γ-Globulins, 2 mM DTT, 10 mM MgCl2 and 1 mM EGTA), and testing compound 1:3 serial diluted starting at 20 uM were incubated at ambient temperature for 60 minutes in 384 well OptiPlate (Perkin Elmer). To quench kinase reactions and detect phosphorylated MKK4, 15 μL of TR-FRET antibody mixture containing 2 nM anti-phosphorylated MKK4 labeled with Europium cryptate (Cisbio) and 23 nM anti-HIS labeled with D2 (Cisbio) in detection buffer (25 mM Tris pH 7.5, 100 mM NaCl, 100 mM EDTA, 0.01% Tween-20, and 200 mM KF) was added to the reaction mixture. The detection mixture was incubated for 3 hours at ambient temperature and the TR-FRET was detected with an EnVision multilabel plate reader (Perkin-Elmer) using the LANCE/DELFIA Dual Enh label from Perkin-Elmer (excitation filter: UV2 (TRF) 320 and emission filters: APC 665 and Europium 615).

DLK, sequence (Q12852 1-520): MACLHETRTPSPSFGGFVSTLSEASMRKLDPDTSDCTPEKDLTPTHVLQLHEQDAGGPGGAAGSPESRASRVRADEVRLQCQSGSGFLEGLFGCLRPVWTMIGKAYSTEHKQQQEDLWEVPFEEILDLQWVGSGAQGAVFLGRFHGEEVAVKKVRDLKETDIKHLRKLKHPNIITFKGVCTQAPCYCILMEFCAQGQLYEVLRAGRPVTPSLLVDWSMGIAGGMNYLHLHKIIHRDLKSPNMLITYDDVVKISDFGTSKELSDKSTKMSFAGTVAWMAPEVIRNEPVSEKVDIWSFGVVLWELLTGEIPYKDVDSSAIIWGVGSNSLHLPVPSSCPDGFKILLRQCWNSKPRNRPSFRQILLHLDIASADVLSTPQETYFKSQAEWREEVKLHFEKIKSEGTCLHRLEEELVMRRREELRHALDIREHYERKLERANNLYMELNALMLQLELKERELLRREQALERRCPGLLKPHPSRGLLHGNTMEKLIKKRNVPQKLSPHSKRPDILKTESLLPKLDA

SMILES	Ki [nM]
Cc1n[nH]c2ncc(-c3nc(N4CC5CC4C5)c4nc5n(c4n3)CCOC5(C)C)cc12 [Example 19, 1-(2-Aza-bicyclo[2.1.1]hex-2-yl)-8,8-dimethyl-3-(3-methyl-1H-pyrazolo[3,4-b]pyridin-5-yl)-5,6-dihydro-8H-7-oxa-2,4,4b,9-tetraaza-fluorene]	493
CCc1n[nH]c2ncc(-c3nc(N4CC5CC4C5)c4nc5n(c4n3)CCOC5(C)C)cc12 [Example 20, 1-(2-Aza-bicyclo[2.1.1]hex-2-yl)-3-(3-ethyl-1H-pyrazolo[3,4-b]pyridin-5-yl)-8,8-dimethyl-5,6-dihydro-8H-7-oxa-2,4,4b,9-tetraaza-fluorene]	161
CCOc1cc(-c2nc(N3CC4CC3C4)c3nc4n(c3n2)CCOC4(C)C)cnc1N [Example 21, 5-[1-(2-Aza-bicyclo[2.1.1]hex-2-yl)-8,8-dimethyl-5,6-dihydro-8H-7-oxa-2,4,4b,9-tetraaza-fluoren-3-yl]-3-ethoxy-pyridin-2-ylamine]	279
CC(C)Oc1cc(-c2nc(N3CC4CC3C4)c3nc4n(c3n2)CCOC4(C)C)cnc1N [Example 22, 5-[1-(2-Aza-bicyclo[2.1.1]hex-2-yl)-8,8-dimethyl-5,6-dihydro-8H-7-oxa-2,4,4b,9-tetraaza-fluoren-3-yl]-3-isopropoxy-pyridin-2-ylamine]	406
CC1(C)OCCn2c1nc1c(N3CC4CC3C4)nc(-c3cnc4[nH]ccc4c3)nc12 [Example 23, 1-(2-Aza-bicyclo[2.1.1]hex-2-yl)-8,8-dimethyl-3-(1H-pyrrolo[2,3-b]pyridin-5-yl)-5,6-dihydro-8H-7-oxa-2,4,4b,9-tetraaza-fluorene]	57.7
CCC1CCCN1c1nc(-c2cnc(N)nc2)nc2c1nc1n2CCOC1(C)C (stereo not drawn) [Example 24, 5-[1-(2-Ethyl-pyrrolidin-1-yl)-8,8-dimethyl-5,6-dihydro-8H-7-oxa-2,4,4b,9-tetraaza-fluoren-3-yl]-pyrimidin-2-ylamine]	294
C[C@@H]1CCCN1c1nc(-c2cnc(N)nc2)nc2c1nc1n2CCOC1(C)C [Example 26, 5-[8,8-Dimethyl-1-((R)-2-methyl-pyrrolidin-1-yl)-5,6-dihydro-8H-7-oxa-2,4,4b,9-tetraaza-fluoren-3-yl]-pyrimidin-2-ylamine]	210
CC1CCN(c2nc(-c3cnc(N)nc3)nc3c2nc2n3CCOC2(C)C)C1 (stereo not drawn) [Example 27, 5-[8,8-Dimethyl-1-(3-methyl-pyrrolidin-1-yl)-5,6-dihydro-8H-7-oxa-2,4,4b,9-tetraaza-fluoren-3-yl]-pyrimidin-2-ylamine]	299
CC1(C)OCCn2c1nc1c(N3CCC(C(F)(F)F)C3)nc(-c3cnc(N)nc3)nc12 (stereo not drawn) [Example 28, 5-[8,8-Dimethyl-1-(3-trifluoromethyl-pyrrolidin-1-yl)-5,6-dihydro-8H-7-oxa-2,4,4b,9-tetraaza-fluoren-3-yl]-pyrimidin-2-ylamine]	245
CC1(C)OCCn2c1nc1c(N3C[C@@H](F)[C@@H](F)C3)nc(-c3cnc(N)nc3)nc12 [Example 29, 5-[1-(cis-3,4-Difluoro-pyrrolidin-1-yl)-8,8-dimethyl-5,6-dihydro-8H-7-oxa-2,4,4b,9-tetraaza-fluoren-3-yl]-pyrimidin-2-ylamine]	297
Cc1c[nH]c2ncc(-c3nc(N4CCC5(COC5)C4)c4nc5n(c4n3)CCOC5(C)C)cc12 [Example 30, 8,8-Dimethyl-3-(3-methyl-1H-pyrrolo[2,3-b]pyridin-5-yl)-1-(2-oxa-6-aza-spiro[3.4]oct-6-yl)-5,6-dihydro-8H-7-oxa-2,4,4b,9-tetraaza-fluorene]	10.2
CC1(C)CN(c2nc(-c3cnc(N)nc3)nc3c2nc2n3CCOC2(C)C)C1 [Example 31, 5-[1-(3,3-Dimethyl-azetidin-1-yl)-8,8-dimethyl-5,6-dihydro-8H-7-oxa-2,4,4b,9-tetraaza-fluoren-3-yl]-pyrimidin-2-ylamine]	424
Cc1c[nH]c2ncc(-c3nc(N4CC(O)C4)c4nc5n(c4n3)CCOC5(C)C)cc12 [Example 32, 1-[8,8-Dimethyl-3-(3-methyl-1H-pyrrolo[2,3-b]pyridin-5-yl)-5,6-dihydro-8H-7-oxa-2,4,4b,9-tetraaza-fluoren-1-yl]-azetidin-3-ol]	13.1
CC1(C)OCCn2c1nc1c(N3CC4CCC3C4)nc(-c3cnc(N)nc3)nc12 (stereo not drawn) [Example 33, 5-[1-(2-Aza-bicyclo[2.2.1]hept-2-yl)-8,8-dimethyl-5,6-dihydro-8H-7-oxa-2,4,4b,9-tetraaza-fluoren-3-yl]-pyrimidin-2-ylamine]	90.3
Cc1c[nH]c2ncc(-c3nc(N4CC5CCC4C5)c4nc5n(c4n3)CCOC5(C)C)cc12 (stereo not drawn) [Example 34, 1-(2-Aza-bicyclo[2.2.1]hept-2-yl)-8,8-dimethyl-3-(3-methyl-1H-pyrrolo[2,3-b]pyridin-5-yl)-5,6-dihydro-8H-7-oxa-2,4,4b,9-tetraaza-fluorene]	31.8
CC1(C)OCCn2c1nc1c(N3CC4CC3C4)nc(-c3cnc(N)c(Cl)c3)nc12 [Example 35, 5-[1-(2-Aza-bicyclo[2.1.1]hex-2-yl)-8,8-dimethyl-5,6-dihydro-8H-7-oxa-2,4,4b,9-tetraaza-fluoren-3-yl]-3-chloro-pyridin-2-ylamine]	235
CC1(C)OCCn2c1nc1c(N3CC4CC3C4)nc(-c3cnc(N)c(F)c3)nc12 [Example 36, 5-[1-(2-Aza-bicyclo[2.1.1]hex-2-yl)-8,8-dimethyl-5,6-dihydro-8H-7-oxa-2,4,4b,9-tetraaza-fluoren-3-yl]-3-fluoro-pyridin-2-ylamine]	444
CC1(C)OCCn2c1nc1c(N3CC4CCC3C4)nc(-c3cnc4ccnn4c3)nc12 (stereo not drawn) [Example 37, 1-(2-Aza-bicyclo[2.2.1]hept-2-yl)-8,8-dimethyl-3-pyrazolo[1,5-a]pyrimidin-6-yl-5,6-dihydro-8H-7-oxa-2,4,4b,9-tetraaza-fluorene]	663
CC1(C)OCCn2c1nc1c(N3CC4CC3C4)nc(-c3cnc4ccnn4c3)nc12 [Example 38, 1-(2-Aza-bicyclo[2.1.1]hex-2-yl)-8,8-dimethyl-3-pyrazolo[1,5-a]pyrimidin-6-yl-5,6-dihydro-8H-7-oxa-2,4,4b,9-tetraaza-fluorene]	280
CC1(C)OCCn2c1nc1c(N3CC(O)C3)nc(-c3cnc4[nH]cc(C(F)(F)F)c4c3)nc12 [Example 39, 1-[8,8-Dimethyl-3-(3-trifluoromethyl-1H-pyrrolo[2,3-b]pyridin-5-yl)-5,6-dihydro-8H-7-oxa-2,4,4b,9-tetraaza-fluoren-1-yl]-azetidin-3-ol]	6.79
CC1(C)OCCn2c1nc1c(N3CC(O)C3)nc(-c3cnc4[nH]cc(Cl)c4c3)nc12 [Example 40, 1-[3-(3-Chloro-1H-pyrrolo[2,3-b]pyridin-5-yl)-8,8-dimethyl-5,6-dihydro-8H-7-oxa-2,4,4b,9-tetraaza-fluoren-1-yl]-azetidin-3-ol]	5.91
COC1CN(c2nc(-c3cnc4[nH]cc(C#N)c4c3)nc3c2nc2n3CCOC2(C)C)C1 [Example 41, 5-[1-(3-Methoxy-azetidin-1-yl)-8,8-dimethyl-5,6-dihydro-8H-7-oxa-2,4,4b,9-tetraaza-fluoren-3-yl]-1H-pyrrolo[2,3-b]pyridin-3-carbonitrile]	30.8
CC1(C)OCCn2c1nc1c(N3CCC4(COC4)C3)nc(-c3cnc4[nH]cc(C#N)c4c3)nc12 [Example 42, 5-[8,8-Dimethyl-1-(2-oxa-6-aza-spiro[3.4]oct-6-yl)-5,6-dihydro-8H-7-oxa-2,4,4b,9-tetraaza-fluoren-3-yl]-1H-pyrrolo[2,3-b]pyridin-3-carbonitrile]	4.97
CC1(C)OCCn2c1nc1c(N3CC4CC3C4)nc(-c3cnc(N)c(OC(F)F)c3)nc12 [Example 43, 5-[1-(2-Aza-bicyclo[2.1.1]hex-2-yl)-8,8-dimethyl-5,6-dihydro-8H-7-oxa-2,4,4b,9-tetraaza-fluoren-3-yl]-3-difluoromethoxy-pyridin-2-ylamine]	41.8
CC1(C)OCCn2c1nc1c(N3CC4CC3C4)nc(-c3cnc(N)c(C4CC4)c3)nc12 [Example 44, 5-[1-(2-Aza-bicyclo[2.1.1]hex-2-yl)-8,8-dimethyl-5,6-dihydro-8H-7-oxa-2,4,4b,9-tetraaza-fluoren-3-yl]-3-cyclopropyl-pyridin-2-ylamine]	621
CC1(C)OCCn2c1nc1c(N3CC(F)C3)nc(-c3cnc4[nH]cc(C(F)(F)F)c4c3)nc12 [Example 45]	9.87
CC1(C)OCCn2c1nc1c(N3CC4CC3C4)nc(-c3cnc(N)nc3)nc12 [Example 46, 5-[1-(2-Aza-bicyclo[2.1.1]hex-2-yl)-8,8-dimethyl-5,6-dihydro-8H-7-oxa-2,4,4b,9-tetraaza-fluoren-3-yl]-pyrimidin-2-ylamine]	130
CNc1ncc(-c2nc(N3CC4CC3C4)c3nc4n(c3n2)CCOC4(C)C)cn1 [Example 47]	1300
Cc1cc(-c2nc(N3CC4CC3C4)c3nc4n(c3n2)CCOC4(C)C)cnc1N [Example 48, 5-(4-(2-azabicyclo[2.1.1]hexan-2-yl)-6,6-dimethyl-8,9-dihydro-6H-[1,4]oxazino[4,3-e]purin-2-yl)-3-methylpyridin-2-amine]	992
CC1(C)OCCn2c1nc1c(N3CCC4(COC4)C3)nc(-c3cnc(N)c(C(F)(F)F)c3)nc12 [Example 49, 5-[8,8-Dimethyl-1-(2-oxa-6-aza-spiro[3.4]oct-6-yl)-5,6-dihydro-8H-7-oxa-2,4,4b,9-tetraaza-fluoren-3-yl]-3-trifluoromethyl-pyridin-2-ylamine]	270
